# Reference: article PMC12304293, “Combatting virulent gut bacteria by inhibiting the biosynthesis of a two-component lanthipeptide toxin” (Nature Communications, 2025)
# Non-standard residues stand in square brackets, D forms with d. Residues, ends and D or L forms follow the SMILES beside them. *: point of attachment. boroGlu = O=C(O)CC[C@H](N*)B(O)O; Gly(cPr) = N[C@H](C(=O)O)C1CC1
# Key:
# His6-CylA-27-412 [1] = target: T1, His6-CylA-27-412 (Enterococcus faecalis, UniProt A0A2P6AWB8); test: Co-operative pore formation assay (pyranine liposomes) measuring CylA-catalyzed cytolysin maturation; type: biochemical
# T1 sequence (A0A2P6AWB8 27-412): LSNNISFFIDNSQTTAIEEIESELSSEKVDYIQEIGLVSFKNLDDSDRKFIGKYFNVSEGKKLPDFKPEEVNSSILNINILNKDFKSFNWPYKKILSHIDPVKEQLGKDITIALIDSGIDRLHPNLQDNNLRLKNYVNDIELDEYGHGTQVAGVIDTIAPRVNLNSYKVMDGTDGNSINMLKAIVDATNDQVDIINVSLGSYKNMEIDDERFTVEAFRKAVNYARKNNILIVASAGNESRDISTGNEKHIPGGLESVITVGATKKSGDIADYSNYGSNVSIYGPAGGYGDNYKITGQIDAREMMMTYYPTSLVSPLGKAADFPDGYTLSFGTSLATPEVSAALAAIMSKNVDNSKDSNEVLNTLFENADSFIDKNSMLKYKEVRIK
# Description: Cytolysin causes hemolysis and lyses a variety of eukaryotic cells[36],[37]. Additionally, CylA aggregates and is thought to associate primarily with the membrane of the producing cell[52],[53]. To mimic the maturation of cytolysin in vitro, an enzyme assay was designed that linked toxin production to the lysis of fluorescently labeled liposomes. […] In this way, pyranine fluorescence was correlated to toxin activation allowing for the determination of EC50 values (Fig. 4B, C).
# Fig. 4 In vitro pore formation assay for determining inhibitor effectiveness. A A schematic of the assay showing how pore formation is used as an indicator of toxin maturation. […] Pore formation dissipates a pH gradient between the interior of the liposome and the surrounding buffer increasing pyranine fluorescence. […] The data points from two replicates are shown (n = 2). Source data are provided as a Source Data file.
# Pyranine encapsulated liposomes were prepared as described elsewhere. […] To a well in a black 96-well plate (200 µL) was added 90 µL high pH buffer (5 mM MES, 5 mM Tricine, 5 mM NaCl, pH 7.4) containing CylA (4 nM final concentration). After adding inhibitor, the mixture was incubated at room temperature for 10 min then freshly prepared (no more than 2 days old) pyranine encapsulated DOPC liposomes were added such that the total DOPC concentration was 80 µM. […] The resulting curves were max-min normalized yielding the fraction of permeabilized liposomes. […] This experiment was performed in duplicate or triplicate for each inhibitor at each concentration.
# Supplementary Figure 3. Measuring CylA-cat alyzed cytolysin maturation using a pyranine pore formation assay. Plots on the left side show the normalized pyranine emission intensity monitored […]
# was added 30 min later. Each trace w as collected using a differ ent total co ncentration of inhibitor as indicated in the l egend. Traces are from a single representative tri al. On the right side, the fraction of liposomes permeabilized after 30 min was plotted as a function of total inhibitor concentration. The data were fit to a dose-response function using Origin 7 and the fit curve is depicted by the red line. Errors bars represent the standard of deviation bet ween two replicates (n = 2). Source d ata are pro vided as a Source Data file. […]
# His6-CylA-27-412 [2] = target: T1, His6-CylA-27-412; test: Analytical size exclusion chromatography (pro-domain release); settings: increasing inhibitor:CylA ratio
# Protocol: To gain more insight into this phenomenon, His6-CylA-27-412 that had undergone complete autolytic cleavage as determined by SDS-PAGE and that had been purified by size exclusion chromatography (SEC), was analyzed by analytical SEC (aSEC) in the presence of inhibitor 9. […] This assignment was supported by SDS-PAGE analysis of the eluted fractions (Supplementary Fig. 8). […] The SEC retention time data is inconsistent with CylA forming higher order oligomers, ruling out a DegP-like activation mechanism.
# Samples of His6-CylA-27-412 prepared as described in ‘Expression and purification of His6-CylA-27-412’ were diluted to a concentration of 50 μM and injected (20 μL injection volume) into an Agilent 1260 infinity analytical high-performance liquid chromatography system equipped with a Biozen™ 1.8 μm, 300 × 4.6 mm LC column pre-equilibriated with aSEC buffer (100 mM NaHPO4, 200 mM NaCl, pH = 7.4). Absorbance at 220 nm was monitored. A flow rate of 0.25 mL/min was used for all experiments. Retention time was correlated to protein size using a Gel Filtration Standard (Biorad) and samples of carbonic anhydrase isolated from bovine erythrocytes (Sigma Aldrich) and albumin isolated from bovine serum (Sigma Aldrich).
compound,measurement,setting,value
CC(=O)NCC(=O)N[C@@H](CC(=O)O)C(=O)N[C@H](C(=O)N[C@@H](CCC(N)=O)C(=O)N[C@@H](C)C(=O)N[C@@H](CCC(=O)O)B(O)O)C1CC1 [Compound 9] (Ac-GD[Gly(cPr)]QA-boroGlu),more effective than compound 1 at inhibiting pore formation,His6-CylA-27-412 [1],2 fold
same,"conversion of CylA-96-412°His6-27-95 to the 12.1 min peak (pro-domain release), aSEC",His6-CylA-27-412 [2],transition appeared complete once a stoichiometric equivalent of inhibitor was added
